Assay results from ChEMBL document CHEMBL6153025, “Multidrug-resistant bacteria quorum-sensing inhibitors: A particular focus on Pseudomonasaeruginosa” (Eur J Med Chem, 2025).
In brackets after ≈: the same amount, converted by molar mass. Each block holds one molecule with its values, some of them ahead of it.

What was measured:
Pseudomonas aeruginosa [1] = test: Antibiofilm activity against Pseudomonas aeruginosa PA14 assessed as reduction in biofilm formation at 16 ug/ml incubated for 2 to 4 hrs by crystal violet staining based analysis relative to control; type: functional; design: scale not given: the % may be the effect or the level left; settings: dose 16 µg/ml; time 2-4 hrs
[2] = Inhibition of quorum sensing system in Pseudomonas aeruginosa PAO1 expressing lasB-gfp at 16 uM relative to control
Pseudomonas aeruginosa [3] = test: Antibacterial activity against Pseudomonas aeruginosa PAO1 assessed as bacterial growth inhibition after 20 hrs by liquid microdilution method; type: functional, organism-based; settings: PAO1, 20 h
Pseudomonas aeruginosa [4] = test: Antivirulence activity against Pseudomonas aeruginosa PAO1 assessed as reduction in elastase production; type: functional, organism-based
Pseudomonas aeruginosa [5] = test: Antivirulence activity against Pseudomonas aeruginosa PAO1 assessed as reduction in protease production; type: functional, organism-based
Pseudomonas aeruginosa [6] = test: Antivirulence activity against Pseudomonas aeruginosa PAO1 assessed as reduction in pyocyanin production; type: functional, organism-based
Pseudomonas aeruginosa [7] = test: Downregulation of lasR mRNA expression level in Pseudomonas aeruginosa PAO1 at 200 uM by RT-PCR analysis relative to control; type: functional
Pseudomonas aeruginosa [8] = test: Downregulation of rhlR mRNA expression level in Pseudomonas aeruginosa PAO1 at 200 uM by RT-PCR analysis relative to control; type: functional
Pseudomonas aeruginosa [9] = test: Downregulation of rhlI mRNA expression level in Pseudomonas aeruginosa PAO1 at 200 uM by RT-PCR analysis relative to control; type: functional
Pseudomonas aeruginosa [10] = test: Antibiofilm activity against Pseudomonas aeruginosa PAO1; type: functional, organism-based
Pseudomonas aeruginosa [11] = test: Downregulation of lasI mRNA expression level in Pseudomonas aeruginosa PAO1 at 200 uM by RT-PCR analysis relative to control; type: functional
Pseudomonas aeruginosa [12] = test: Antivirulence activity against Pseudomonas aeruginosa PAO1 assessed as inhibition of rhamnolipid production at 16 ug/ml relative to control; type: functional; design: scale not given: the % may be the effect or the level left; settings: dose 16 µg/ml
Pseudomonas aeruginosa [13] = test: Downregulation of lasB mRNA level in Pseudomonas aeruginosa PAO1; type: functional
Pseudomonas aeruginosa [14] = test: Antibacterial activity against Pseudomonas aeruginosa PAO1 by broth microdilution method; type: functional
Pseudomonas aeruginosa [15] = test: Antivirulence activity against Pseudomonas aeruginosa PAO1 assessed as inhibition of pyocyanin production at 16 ug/ml relative to control; type: functional; design: scale not given: the % may be the effect or the level left; settings: dose 16 µg/ml
Pseudomonas aeruginosa [16] = test: Antibiofilm activity against Pseudomonas aeruginosa PAO1 assessed as inhibition of biofilm formation at 16 ug/ml incubated for 24 hrs by crystal violet staining based assay relative to control; type: functional; design: scale not given: the % may be the effect or the level left; settings: dose 16 µg/ml
Pseudomonas aeruginosa [17] = test: Downregulation of lasR mRNA expression in Pseudomonas aeruginosa PAO1; type: functional
Pseudomonas aeruginosa [18] = test: Inhibition of pyocyanin production in Pseudomonas aeruginosa PAO1; type: functional, organism-based
Pseudomonas aeruginosa [19] = test: Antibiofilm activity against Pseudomonas aeruginosa ATCC 27853 assessed as reduction in biofilm biomass at 16 ug/ml relative to control; type: functional; design: scale not given: the % may be the effect or the level left; settings: dose 16 µg/ml
Pseudomonas aeruginosa [20] = test: Inhibition of rhamnolipid production in Pseudomonas aeruginosa PAO1; type: functional, organism-based
Pseudomonas aeruginosa [21] = test: Anti-virulence activity in Pseudomonas aeruginosa PAO1 assessed as reduction in elastase production; type: functional, organism-based
[22] = Inhibition of quorum sensing system in Pseudomonas aeruginosa PAO1 expressing lasB-gfp
[23] = Inhibition of quorum sensing system in Pseudomonas aeruginosa PAO1- rhlA-gfp assessed as reduction in fluorescence intensity measured for 12 hrs by GFP reporter strain assay
Pseudomonas aeruginosa [24] = test: Downregulation of rhlA mRNA level in Pseudomonas aeruginosa PAO1 at 32 ug/ml relative to control; type: functional; settings: dose 32 µg/ml
[25] = Inhibition of quorum sensing system in Pseudomonas aeruginosa PAO1-pqsA-gfp assessed as reduction in fluorescence intensity incubated for 12 hrs by GFP reporter strain assay
Pseudomonas aeruginosa [26] = test: Antivirulence activity against Pseudomonas aeruginosa PAO1 assessed as reduction in pyocyanin level at 10 uM relative to control; type: functional; design: scale not given: the % may be the effect or the level left
Pseudomonas aeruginosa [27] = test: Antibiofilm activity against logarithmic growth phase Pseudomonas aeruginosa PAO1 assessed as inhibition of biofilm formation incubated for 20 hrs by crystal violet staining based analysis; type: functional, organism-based; settings: PAO1, 20 h
Pseudomonas aeruginosa [28] = test: Antivirulence activity in Pseudomonas aeruginosa PAO1 assessed as reduction in elastase production at 10 uM relative to control; type: functional; design: scale not given: the % may be the effect or the level left

inhibition [2]: 44%
SMILES: CCCCCCC/C=C\C(=O)O
Activity (Pseudomonas aeruginosa [1]): 8%

SMILES: COc1c(O)cc(O)c2c(=O)cc(-c3ccccc3)oc12 [WOGONIN]
IC50 (Pseudomonas aeruginosa [3]): 15 µg/mL (≈ 52.8 µM)
IC50 (Pseudomonas aeruginosa [4]): 15 µg/mL (≈ 52.8 µM)
IC50 (Pseudomonas aeruginosa [5]): 15 µg/mL (≈ 52.8 µM)
IC50 (Pseudomonas aeruginosa [6]): 15 µg/mL (≈ 52.8 µM)

SMILES: O=c1cc(-c2ccc(O)c(O)c2)oc2cc(O)cc(O)c12 [LUTEOLIN]
Activity (Pseudomonas aeruginosa [7]): 98%
Activity (Pseudomonas aeruginosa [8]): 98%
Activity (Pseudomonas aeruginosa [9]): 98%
IC50 (Pseudomonas aeruginosa [10]): 50 µM
Activity (Pseudomonas aeruginosa [11]): 98%

SMILES: COc1ccccc1N1CCN(c2ccnc(SCC(=O)Nc3c(C)cc(C)cc3C)n2)CC1
Activity (Pseudomonas aeruginosa [12]): 62.46%
Activity (Pseudomonas aeruginosa [13]): 85%
MIC (Pseudomonas aeruginosa [14]): 500 µM (≈ 239 µg/mL)
Activity (Pseudomonas aeruginosa [15]): 76.56%
Activity (Pseudomonas aeruginosa [16]): 52.4%
Activity (Pseudomonas aeruginosa [17]): 85%

SMILES: O=C(/C=C/c1ccc(O)c(O)c1)OCCc1ccc(Br)cc1
IC50 (Pseudomonas aeruginosa [18]): 20 µM
Activity (Pseudomonas aeruginosa [19]): 33.69%
IC50 (Pseudomonas aeruginosa [20]): 1250 nM
IC50 (Pseudomonas aeruginosa [21]): 20 µM
IC50 [22]: 20 µM

SMILES: C=C1CC(=O)N(c2ccc(Br)cc2)C1=O
IC50 [23]: 6.67 µM
Activity (Pseudomonas aeruginosa [24]): 78%
IC50 [25]: 2510 nM
Activity (Pseudomonas aeruginosa [26]): 55%
IC50 (Pseudomonas aeruginosa [27]): 10 µM

SMILES: C=C1CC(=O)N(CCCCCCCCCCCCCC)C1=O
IC50 [23]: 0.61 µM
Activity (Pseudomonas aeruginosa [24]): 75%
IC50 [25]: 143 nM
Activity (Pseudomonas aeruginosa [28]): 50%
Activity (Pseudomonas aeruginosa [26]): 55%
